Experimental data from US20070179060A1, “6-(Poly-substituted aryl)-4-aminopicolinates and their use as herbicides” (priority 2006, published 2007).

Assays:
[1] = tested on: wheat (Triticum aestivum); experiment: Postemergence herbicidal activity in cereal crops; format: in vivo; conditions: crop, post-emergent, after 20-22 days
Method: (§1) When required to ensure good germination and healthy plants, a fungicide treatment and/or other chemical or physical treatment was applied. The plants were grown for 7-36 days in a greenhouse with an approximate 14 hour photoperiod which was maintained at about 18° C. during the day and 17° C. during the night. Nutrients and water were added on a regular basis and supplemental lighting was provided with overhead metal halide 1000-Watt lamps as necessary. The plants were employed for testing when they reached the second or third true leaf stage. […] The concentrated stock solutions obtained were diluted with 16 mL of an aqueous mixture containing acetone, water, isopropyl alcohol, DMSO, Agri-dex crop oil concentrate, and Triton® X-77 surfactant in a 64.7:26.0:6.7:2.0:0.7:0.01 v/v ratio to obtain spray solutions containing the highest application rates. […] Compound requirements are based upon a 12 mL application volume at a rate of 187 L/ha. Formulated compounds were applied to the plant material with an overhead Mandel track sprayer equipped with a […] nozzles calibrated to deliver 187 L/ha over an application area of 0.503 square meters at a spray height of 18 inches (43 cm) above average plant canopy height. Control plants were sprayed in the same manner with the blank. The treated plants and control plants were placed in a greenhouse as described above and watered by sub-irrigation to prevent wash-off of the test compounds.

Veronica persica = experiment: Postemergence herbicidal activity in cereal crops; format: in vivo; conditions: post-emergent, after 20-22 days
Method: as §1

Lamium purpureum = experiment: Postemergence herbicidal activity in cereal crops; format: in vivo; conditions: post-emergent, after 20-22 days
Method: as §1

Galium aparine = experiment: Postemergence herbicidal activity in cereal crops; format: in vivo; conditions: post-emergent, after 20-22 days
Method: as §1

Papaver rhoeas = experiment: Postemergence herbicidal activity in cereal crops; format: in vivo; conditions: post-emergent, after 20-22 days
Method: as §1

barley (Hordeum vulare) = experiment: Postemergence herbicidal activity in cereal crops; format: in vivo; conditions: crop, post-emergent, after 20-22 days
Method: as §1

[2] = tested on: lambsquarter (Chenopodium album); experiment: Postemergence herbicidal activity; format: in vivo; conditions: post-emergent, 140 g ai/ha, after 14 days; for pest or weed control at 140 g/ha: Chenopodium album, post-emergence, 336 h, read-out: % Control CHEAL
Summary of the method: (§2)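 Plants grown 7-21 days in greenhouse (about 15 h photoperiod, 23-29° C day, 22-28° C night) to first or second true leaf stage. Compounds in acetone/water/isopropanol/DMSO carrier with crop oil concentrate and Triton X-155 sprayed overhead at 187 L/ha; controls received solvent blank. Plants sub-irrigated afterwards; dose responses analysed by probit analysis.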

[3] = tested on: velvetleaf (Abutilon theophrasti); experiment: Postemergence herbicidal activity; format: in vivo; conditions: post-emergent, 140 g ai/ha, after 14 days; for pest or weed control at 140 g/ha: Abutilon theophrasti, post-emergence, 336 h, read-out: % Control ABUTH
Summary of the method: as §2

[4] = tested on: redroot pigweed (Amaranthus retroflexus); experiment: Postemergence herbicidal activity; format: in vivo; conditions: post-emergent, 140 g ai/ha, after 14 days; for pest or weed control at 140 g/ha: Amaranthus retroflexus, post-emergence, 336 h, read-out: % Control AMARE
Summary of the method: as §2

[5] = tested on: lambsquarter (Chenopodium album); experiment: Preemergence herbicidal activity; format: in vivo; conditions: Chenopodium album, pre-emergence, 480 h; pre-emergent, 140 g ai/ha, after 20-22 days; read-out: % Control CHEAL
From the text: (§3) Seeds of the desired test plant species were planted in a soil matrix prepared by mixing a loam soil (43 percent silt, 19 percent clay, and 38 percent sand, with a pH of about 8.1 and an organic matter content of about 1.5 percent) and sand in a 70 to 30 ratio. The soil matrix was contained in plastic pots with a surface area of 113 square centimeters. When required to ensure good germination and healthy plants, a fungicide treatment and/or other chemical or physical treatment was applied. […] Compound requirements are based upon a 12 mL application volume at a rate of 187 L/ha. Formulated compounds were applied to the plant material with an overhead Mandel track sprayer equipped with a […] nozzles calibrated to deliver 187 L/ha over an application area of 0.503 square meters at a spray height of 18 inches (43 cm) above the soil surface. Control plants were sprayed in the same manner with the solvent blank. The treated pots and control pots were placed in a greenhouse maintained with an approximate 15 hour photoperiod and temperatures of about 23-29° C. during the day and 22-28° C. during the night. Nutrients and water were added on a regular basis and supplemental lighting was provided with overhead metal halide 1000-watt lamps as necessary. The water was added by top-irrigation.

[6] = tested on: velvetleaf (Abutilon theophrasti); experiment: Preemergence herbicidal activity; format: in vivo; conditions: Abutilon theophrasti, pre-emergence, 480 h; pre-emergent, 140 g ai/ha, after 20-22 days; read-out: % Control ABUTH
From the text: as §3

[7] = tested on: redroot pigweed (Amaranthus retroflexus); experiment: Preemergence herbicidal activity; format: in vivo; conditions: Amaranthus retroflexus, pre-emergence, 480 h; pre-emergent, 140 g ai/ha, after 20-22 days; read-out: % Control AMARE
From the text: as §3

| SMILES | pest or weed control at 140 g/ha [2] [%] | pest or weed control at 140 g/ha [3] [%] | pest or weed control at 140 g/ha [4] [%] | pest or weed control at 140 g/ha [5] [%] | pest or weed control at 140 g/ha [6] [%] | pest or weed control at 140 g/ha [7] [%] | melting point | other results |
| --- | --- | --- | --- | --- | --- | --- | --- | --- |
| COC(=O)c1nc(-c2ccc(C)c(OC)c2F)cc(N)c1Cl [Compound 36, 4-amino-3-chloro-6-(2-fluoro-3-methoxy-4-methylphenyl) pyridine-2-carboxylic acid, methyl ester] |  |  |  |  |  |  |  | % Control TRZAS ([1]; 70 g ai/ha): 5%; % Control VERPE (Veronica persica; 70 g ai/ha): 50%; % Control LAMPU (Lamium purpureum; 70 g ai/ha): 99%; % Control GALAP (Galium aparine; 70 g ai/ha): 95%; % Control PAPRH (Papaver rhoeas; 70 g ai/ha): 99%; % Control HORVS (barley (Hordeum vulare); 70 g ai/ha): 0%; % Control CHEAL [2]: 100%; % Control ABUTH [3]: 100%; % Control AMARE [4]: 100% |
| COC(=O)c1nc(-c2c(F)cc(C)c(OC)c2F)cc(N)c1Cl [Compound 51, 4-Amino-3-chloro-6-(2,6-difluoro-3-methoxy-4-methylphenyl)pyridine-2-carboxylic acid, methyl ester] | 100 | 100 | 100 |  |  |  |  | plant injury at 35 g/ha ([1]; Triticum aestivum, post-emergence, 480 h, 35 g ai/ha, read-out: % Control TRZAS): 0%; pest or weed control at 35 g/ha (Veronica persica; Veronica persica, post-emergence, 480 h, 35 g ai/ha, read-out: % Control VERPE): 30%; pest or weed control at 35 g/ha (Lamium purpureum; Lamium purpureum, post-emergence, 480 h, 35 g ai/ha, read-out: % Control LAMPU): 70%; pest or weed control at 35 g/ha (Galium aparine; Galium aparine, post-emergence, 480 h, 35 g ai/ha, read-out: % Control GALAP): 95%; pest or weed control at 35 g/ha (Papaver rhoeas; Papaver rhoeas, post-emergence, 480 h, 35 g ai/ha, read-out: % Control PAPRH): 100%; pest or weed control at 35 g/ha (barley (Hordeum vulare); Hordeum, post-emergence, 480 h, 35 g ai/ha, read-out: % Control HORVS): 0% |
| CN(C)c1c(Cl)cc(F)c(-c2cc(N)c(Cl)c(C(=O)O)n2)c1F [Compound 94, 4-Amino-3-chloro-6-(4-chloro-2,6-difluoro-3-dimethylaminophenyl)pyridine-2-carboxylic acid] | 100 | 100 | 100 | 100 | 100 | 100 | 171 to 172 °C |  |
| Cc1c(Cl)ccc(-c2cc(N)c(Cl)c(C(=O)O)n2)c1F [Compound 99, 4-Amino-3-chloro-6-(4-chloro-2-fluoro-3-methylphenyl)pyridine-2-carboxylic acid] | 90 | 80 | 90 | 95 | 100 | 100 | 179 to 181 °C (dec.) |  |
| CCOc1c(Cl)ccc(-c2cc(N)c(Cl)c(C(=O)O)n2)c1F [Compound 102, 4-Amino-3-chloro-6-(4-chloro-2-fluoro-3-ethoxyphenyl)pyridine-2-carboxylic acid] | 95 | 80 | 85 | 0 | 85 | 95 | 177 to 178 °C (dec.) |  |
| COCc1c(Cl)ccc(-c2cc(N)c(Cl)c(C(=O)O)n2)c1F [Compound 105, 4-Amino-3-chloro-6-(4-chloro-2-fluoro-3-methoxymethylphenyl)pyridine-2-carboxylic acid] | 85 | 95 | 98 | 95 | 100 | 100 | 187 to 188 °C (dec.) |  |
| Nc1cc(-c2ccc3c(c2F)OCO3)nc(C(=O)O)c1Cl [Compound 108, 4-Amino-3-chloro-6-(2-fluoro-3,4-methylenedioxyphenyl)pyridine-2-carboxylic acid] | 95 | 100 | 100 | 90 | 90 | 100 | 202 to 203 °C (dec.) |  |
| COc1c(Cl)ccc(-c2cc(N)c(Cl)c(C(=O)O)n2)c1Cl [Compound 110, 4-Amino-3-chloro-6-(2,4-dichloro-3-methoxyphenyl)pyridine-2-carboxylic acid] | 85 | 80 | 90 | 40 | 100 | 40 | 187 to 188 °C (dec.) |  |
| Nc1c(F)c(-c2ccc3c(c2F)OCO3)nc(C(=O)O)c1Cl [Compound 115, 4-Amino-3-chloro-5-fluoro-6-(2-fluoro-3,4-methylenedioxyphenyl)pyridine-2-carboxylic acid] | 100 | 100 | 100 | 100 | 100 | 100 | 179 to 180 °C |  |
| CCN(CC)c1c(Cl)ccc(-c2cc(N)c(Cl)c(C(=O)O)n2)c1F [Compound 116, 4-Amino-3-chloro-6-[4-chloro-3-(diethylamino)-2-fluorophenyl]pyridine-2-carboxylic acid] | 100 | 80 | 90 | 75 | 100 | 100 | 174 to 175 °C |  |
| COc1c(Br)ccc(-c2cc(N)c(Cl)c(C(=O)O)n2)c1Cl [Compound 121, 4-Amino-6-(4-bromo-2-chloro-3-methoxyphenyl)-3-chloropyridine-2-carboxylic acid] | 90 | 100 | 95 | 100 | 100 | 100 | 192 to 193 °C |  |
| COc1c(Cl)cc(F)c(-c2cc(N)c(Cl)c(C(=O)O)n2)c1F [Compound 133, 4-Amino-3-chloro-6-(4-chloro-2,6-difluoro-3-methoxyphenyl)pyridine-2-carboxylic acid] |  |  |  |  |  |  |  | plant injury at 17.5 g/ha ([1]; Triticum aestivum, post-emergence, 480 h, 17.5 g ai/ha, read-out: % Control TRZAS): 0%; pest or weed control at 17.5 g/ha (Veronica persica; Veronica persica, post-emergence, 480 h, 17.5 g ai/ha, read-out: % Control VERPE): 70%; pest or weed control at 17.5 g/ha (Lamium purpureum; Lamium purpureum, post-emergence, 480 h, 17.5 g ai/ha, read-out: % Control LAMPU): 99%; pest or weed control at 17.5 g/ha (Galium aparine; Galium aparine, post-emergence, 480 h, 17.5 g ai/ha, read-out: % Control GALAP): 100%; pest or weed control at 17.5 g/ha (Papaver rhoeas; Papaver rhoeas, post-emergence, 480 h, 17.5 g ai/ha, read-out: % Control PAPRH): 100%; pest or weed control at 17.5 g/ha (barley (Hordeum vulare); Hordeum, post-emergence, 480 h, 17.5 g ai/ha, read-out: % Control HORVS): 0% |
